Data as given in ChEMBL document CHEMBL4000203, “Green synthesis and anticancer potential of chalcone linked-1,2,3-triazoles” (Eur J Med Chem, 2017).
Active and inactive are the calls of the source. The calls are words filed in the database; no cut-off is given here.

Tests used:
MCF7 [1] = experiment: Cytotoxicity against human MCF7 cells assessed as growth inhibition at 10 uM measured after 48 hrs by MTT assay relative to control; type: functional; conditions: for inhibition of growth at 10 µM: MCF7, 48 h, read-out: GI
MIA PaCa-2 [2] = experiment: Cytotoxicity against human MIAPaCa2 cells assessed as growth inhibition at 10 uM measured after 48 hrs by MTT assay relative to control; type: functional; conditions: for inhibition of growth at 10 µM: MIA PaCa-2, 48 h, read-out: GI
A549 [3] = experiment: Cytotoxicity against human A549 cells assessed as growth inhibition at 10 uM measured after 48 hrs by MTT assay relative to control; type: functional; conditions: for inhibition of growth at 10 µM: A549, 48 h, read-out: GI
HepG2 [4] = experiment: Cytotoxicity against human HepG2 cells assessed as growth inhibition at 10 uM measured after 48 hrs by MTT assay relative to control; type: functional; conditions: for inhibition of growth at 10 µM: HepG2, 48 h, read-out: GI
[5] = Cytotoxicity against human FR2 cells assessed as growth inhibition at 10 uM measured after 48 hrs by MTT assay relative to control; type: cell-based; conditions: for inhibition at 48 h, 10 µM: FR2 cells, read-out: GI; for growth inhibition (GI): fr2, 48 h, 10 µM
MCF7 [6] = experiment: Cytotoxicity against human MCF7 cells measured after 48 hrs by MTT assay; type: functional, cell-based; conditions: MCF7, 48 h
MIA PaCa-2 [7] = experiment: Cytotoxicity against human MIAPaCa2 cells measured after 48 hrs by MTT assay; type: functional, cell-based; conditions: MIA PaCa-2, 48 h
A549 [8] = experiment: Cytotoxicity against human A549 cells measured after 48 hrs by MTT assay; type: functional, cell-based; conditions: A549, 48 h
HepG2 [9] = experiment: Cytotoxicity against human HepG2 cells measured after 48 hrs by MTT assay; type: functional, cell-based; conditions: HepG2, 48 h
[10] = Cytotoxicity against human FR2 cells measured after 48 hrs by MTT assay; type: cell-based; conditions: FR2, 48 h

| Compound | inhibition of growth at 10 µM (MCF7 [1]) [%] | inhibition of growth at 10 µM (MIA PaCa-2 [2]) [%] | inhibition of growth at 10 µM (A549 [3]) [%] | inhibition of growth at 10 µM (HepG2 [4]) [%] | inhibition at 48 h, 10 µM [5] [%] | IC50 (MCF7 [6]) [µM] | IC50 (MIA PaCa-2 [7]) [µM] | IC50 (A549 [8]) [µM] | IC50 (HepG2 [9]) [µM] | IC50 [10] [µM] | growth inhibition (GI) (MCF7 [1]) | growth inhibition (GI) (MIA PaCa-2 [2]) | growth inhibition (GI) (A549 [3]) | growth inhibition (GI) (HepG2 [4]) | growth inhibition (GI) [5] |
| --- | --- | --- | --- | --- | --- | --- | --- | --- | --- | --- | --- | --- | --- | --- | --- |
| O=C(/C=C/c1ccc(OCc2cn(Cc3cccc(Br)c3)nn2)cc1)c1ccc(Br)cc1 | 36 | 43 | 44 | 25 | 9 |  |  |  |  |  |  |  |  |  |  |
| O=C(/C=C/c1ccc(OCc2cn(Cc3ccc(F)cc3)nn2)cc1)c1ccc([N+](=O)[O-])cc1 | 38 | 44 | 34 | 25 | 8 |  |  |  |  |  |  |  |  |  |  |
| O=C(/C=C/c1ccc(OCc2cn(Cc3ccccc3)nn2)cc1)c1ccc(Br)cc1 | 34 | 44 | 34 | 22 | 7 |  |  |  |  |  |  |  |  |  |  |
| Oc1cccc(-c2nc(N3CCOCC3)c3oc4ncccc4c3n2)c1 [PI-103] | 97 | 93 | 89 | 65 | 25 | 3 | 6 | 4 | 8 | > 50 |  |  |  |  |  |
| O=C(/C=C/c1ccc(OCc2cn(Cc3ccccc3F)nn2)cc1)c1ccc([N+](=O)[O-])cc1 | 33 | 22 | 43 | 22 | 12 |  |  |  |  |  |  |  |  |  |  |
| C#CCOc1ccc(/C=C/C(=O)c2ccc(OC)cc2)cc1 | 32 | 32 | 27 | 25 | 8 |  |  |  |  |  |  |  |  |  |  |
| COc1ccc(C(=O)/C=C/c2ccc(OCc3cn(Cc4ccc(Br)cc4)nn3)cc2)cc1 | 53 | 56 | 50 | 59 | 2 | 9 | 8 | 10 | 8 | > 100 |  |  |  |  |  |
| O=C(/C=C/c1ccc(OCc2cn(Cc3ccc(Br)cc3)nn2)cc1)c1ccc(Br)cc1 | 23 | 29 | 27 | 22 | 11 |  |  |  |  |  |  |  |  |  |  |
| O=C(/C=C/c1ccc(OCc2cn(Cc3ccccc3)nn2)cc1)c1ccc([N+](=O)[O-])cc1 |  |  |  |  |  |  |  |  |  |  | inactive | inactive | inactive | inactive | Non-Toxic |
| O=C(/C=C/c1ccc(OCc2cn(Cc3cccc(F)c3)nn2)cc1)c1ccc(Br)cc1 | 42 | 34 | 37 | 34 | 4 |  |  |  |  |  |  |  |  |  |  |
| COc1ccc(C(=O)/C=C/c2ccc(OCc3cn(Cc4cccc(F)c4)nn3)cc2)cc1 | 41 | 48 | 56 | 22 | 12 | 55 | 15 | 9 | 85 | > 100 |  |  |  |  |  |
| O=C(/C=C/c1ccc(OCc2cn(Cc3ccccc3Br)nn2)cc1)c1ccc([N+](=O)[O-])cc1 | 43 | 34 | 42 | 32 | 2 |  |  |  |  |  |  |  |  |  |  |
| O=C(/C=C/c1ccc(OCc2cn(Cc3ccccc3Br)nn2)cc1)c1ccc(Br)cc1 | 44 | 43 | 44 | 34 | 11 |  |  |  |  |  |  |  |  |  |  |
| O=C(/C=C/c1ccc(OCc2cn(Cc3cccc(Br)c3)nn2)cc1)c1ccc([N+](=O)[O-])cc1 | 12 | 21 | 28 | 13 | 4 |  |  |  |  |  |  |  |  |  |  |
| COc1ccc(C(=O)/C=C/c2ccc(OCc3cn(Cc4ccccc4Br)nn3)cc2)cc1 | 60 | 50 | 52 | 44 | 7 | 7 | 10 | 10 | 20 | > 100 |  |  |  |  |  |
| C#CCOc1ccc(/C=C/C(=O)c2ccc([N+](=O)[O-])cc2)cc1 | 44 | 42 | 33 | 27 | 2 |  |  |  |  |  |  |  |  |  |  |
| C#CCOc1ccc(/C=C/C(=O)c2ccc(Br)cc2)cc1 | 45 | 34 | 34 | 22 | 9 |  |  |  |  |  |  |  |  |  |  |
| O=C(/C=C/c1ccc(OCc2cn(Cc3ccc(F)cc3)nn2)cc1)c1ccc(Br)cc1 | 37 | 32 | 43 | 22 | 7 |  |  |  |  |  |  |  |  |  |  |
| O=C(/C=C/c1ccc(OCc2cn(Cc3cccc(F)c3)nn2)cc1)c1ccc([N+](=O)[O-])cc1 | 30 | 32 | 33 | 43 | 5 |  |  |  |  |  |  |  |  |  |  |
| COc1ccc(C(=O)/C=C/c2ccc(OCc3cn(Cc4ccc(F)cc4)nn3)cc2)cc1 | 15 | 6 | 33 | 21 |  |  |  |  |  |  |  |  |  |  | Non-Toxic |
| COc1ccc(C(=O)/C=C/c2ccc(OCc3cn(Cc4ccccc4F)nn3)cc2)cc1 | 32 | 19 | 21 | 33 | 11 |  |  |  |  |  |  |  |  |  |  |
| COc1ccc(C(=O)/C=C/c2ccc(OCc3cn(Cc4cccc(Br)c4)nn3)cc2)cc1 | 45 | 50 | 47 | 27 | 3 | 20 | 10 | 15 | 60 | > 100 |  |  |  |  |  |
| O=C(/C=C/c1ccc(OCc2cn(Cc3ccccc3F)nn2)cc1)c1ccc(Br)cc1 | 38 | 28 | 38 | 29 | 8 |  |  |  |  |  |  |  |  |  |  |
| O=C(/C=C/c1ccc(OCc2cn(Cc3ccc(Br)cc3)nn2)cc1)c1ccc([N+](=O)[O-])cc1 | 18 | 17 | 18 | 21 | 10 |  |  |  |  |  |  |  |  |  |  |
